The values that follow come from US20080085893A1, “MATRIX METALLOPROTEASE INHIBITORS” (priority 2006, published 2008).

What all share (type): biochemical
In test [1] the target is T1, human MMP-3 (amino acids 100-265) (Homo sapiens, UniProt P08254).
T1 construct: human MMP-3 (amino acids 100-265); made in house
The test can be described thus: MMP dose response assay for determining IC50, MMP-3. The settings on record: recombinant enzyme, fluorescent-quench substrate 100 nM. The procedure:
(§1) MMP Dose Response Assay for Determining IC50
(§2) The following method was used for determining IC50 values of different inhibitor compounds against multiple MMP enzymes. Frozen stocks of recombinantly produced MMPs were prepared in assay buffer (50 mM HEPES pH 7.4, 10 mM CaCl2, 0.05% Brij-35). The following domains were used to produce catalytically active version of the indicated MMP enzymes, human MMP-1 (amino acids 100-262), human MMP-2 (amino acids 1-660), human MMP-3 (amino acids 100-265), human MMP-9 (amino acids 107-446), human MMP-13 (amino acids 103-268), and rat MMP-9 (amino acids 108-446). Enzyme concentrations in the assay were determined empirically and set such that proteolytic activity was maintained in a linear range over the time-course of the experiment. Diluted enzymes were mixed with various test compounds that had been pre-diluted into assay buffer to establish concentration curves ranging from 10^−5 M to 10^−12 M. Compounds were diluted into assay buffer that contained an appropriate concentration of DMSO to maintain this at a constant in all wells. Each concentration for each test compound was tested in triplicate. MMP enzymes were equilibrated with compounds for 1 hour at room temperature, then a fluorescent-quench substrate (Acetyl-Cys(Eu)-Pro-Leu-Gly-Leu-Lys-(QSY7)-Ala-Arg-amide) was added to a final concentration of 100 nM. Following a 15 minute room temperature incubation, the assay plate was read on an EnVision plate reader using the following parameters: excitation wavelength 340 nM, emission wavelength 615 nM, number of flashes 100, delay before reading 300 milliseconds. Data was analyzed by first calculating average background value from wells that contained only substrate, and this value was subtracted from the entire plate. The 100%, or maximum value, was determined by averaging control wells that contained enzyme, substrate and DMSO. For each well, the percent of control was calculated by dividing the well value by the average DMSO value obtained above.
(§3) Additionally, compounds 27, 3, 65, 66, and 97 were tested in vitro for MMP-3, MMP-9 (rat), and MMP-13 antagonism.

In test [2] the target is T2, human MMP-13 (amino acids 103-268) (Homo sapiens, UniProt P45452).
T2 construct: human MMP-13 (amino acids 103-268); made in house
The test can be described thus: MMP dose response assay for determining IC50, MMP-13. The settings on record: recombinant enzyme, fluorescent-quench substrate 100 nM. The procedure: as §1, §2, §3

Test [3] deals with T3, rat MMP-9 (amino acids 108-446) (Rattus norvegicus, UniProt P50282).
T3 construct: rat MMP-9 (amino acids 108-446); made in house
The test can be described thus: MMP dose response assay for determining IC50, rat MMP-9. The settings on record: rat enzyme. The procedure:
as §1
as §2, with “Diluted enzymes were mixed with various test compounds that had been pre-diluted into assay buffer to establish concentration curves ranging from 10^−5 M to 10^−12 M. Compounds were diluted into assay buffer that contained an appropriate concentration of DMSO to maintain this at a constant in all wells. Each concentration for each test compound was tested in triplicate. MMP enzymes were equilibrated with compounds for 1 hour at room temperature, then a fluorescent-quench substrate (Acetyl-Cys(Eu)-Pro-Leu-Gly-Leu-Lys-(QSY7)-Ala-Arg-amide) was added to a final concentration of 100 nM.” left out, “For each well, the percent of control was calculated by dividing the well value by the average DMSO value obtained above.” left out

Test [4] has as its target T4, human MMP-1 (amino acids 100-262) (Homo sapiens, UniProt P03956).
T4 construct: human MMP-1 (amino acids 100-262); made in house
T4 sequence (P03956 100-262): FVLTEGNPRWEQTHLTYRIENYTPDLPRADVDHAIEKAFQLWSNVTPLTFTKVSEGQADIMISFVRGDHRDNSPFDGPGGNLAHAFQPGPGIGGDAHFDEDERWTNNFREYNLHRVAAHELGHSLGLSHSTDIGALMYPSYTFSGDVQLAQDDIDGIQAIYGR
The test can be described thus: MMP dose response assay for determining IC50, MMP-1. The settings on record: recombinant catalytic domain, fluorescent-quench substrate 100 nM. The method in brief:
(§4)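 Recombinant enzymes in 50 mM HEPES pH 7.4, 10 mM CaCl2, 0.05% Brij-35, at empirically set levels keeping activity linear, preincubated 1 h at room temperature with compound in triplicate. Fluorescence-quench peptide substrate (Eu/QSY7) added at 100 nM final. Background-subtracted signal expressed as percent of DMSO control for IC50.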

Test [5] has as its target T5, human MMP-9 (amino acids 107-446) (Homo sapiens, UniProt P14780).
T5 construct: human MMP-9 (amino acids 107-446); made in house
The test can be described thus: MMP dose response assay for determining IC50, MMP-9. The settings on record: recombinant enzyme, fluorescent-quench substrate 100 nM; read-out: MMP-9. The method in brief:
as §4

The target in test [6] is T6, human MMP-2 (amino acids 1-660) (Homo sapiens, UniProt P08253).
T6 construct: human MMP-2 (amino acids 1-660); made in house
T6 sequence (P08253 110-660): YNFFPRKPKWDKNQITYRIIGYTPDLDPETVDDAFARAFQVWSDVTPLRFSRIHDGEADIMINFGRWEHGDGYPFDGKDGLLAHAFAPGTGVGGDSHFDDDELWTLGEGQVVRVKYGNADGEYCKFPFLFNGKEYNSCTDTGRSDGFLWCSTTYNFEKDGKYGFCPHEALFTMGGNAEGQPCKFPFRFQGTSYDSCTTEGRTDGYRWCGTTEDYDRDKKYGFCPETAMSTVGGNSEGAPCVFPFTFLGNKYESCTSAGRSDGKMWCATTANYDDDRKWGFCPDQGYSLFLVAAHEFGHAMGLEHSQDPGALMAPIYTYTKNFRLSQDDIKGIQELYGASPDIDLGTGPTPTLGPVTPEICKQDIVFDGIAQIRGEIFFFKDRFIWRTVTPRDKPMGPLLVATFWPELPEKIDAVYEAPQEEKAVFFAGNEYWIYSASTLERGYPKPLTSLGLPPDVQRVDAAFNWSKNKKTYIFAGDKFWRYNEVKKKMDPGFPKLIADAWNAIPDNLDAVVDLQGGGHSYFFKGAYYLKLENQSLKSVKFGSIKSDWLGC
The test can be described thus: MMP dose response assay for determining IC50, MMP-2. The settings on record: recombinant enzyme, fluorescent-quench substrate 100 nM; read-out: MMP-2. The method in brief: as §4

SMILES strings stand for the structures. Values joined by “and” are separate entries in the source; they are usually repeats but may differ in a detail not shown here. Identical values can stand only once.

T5 sequence (P14780 107-446): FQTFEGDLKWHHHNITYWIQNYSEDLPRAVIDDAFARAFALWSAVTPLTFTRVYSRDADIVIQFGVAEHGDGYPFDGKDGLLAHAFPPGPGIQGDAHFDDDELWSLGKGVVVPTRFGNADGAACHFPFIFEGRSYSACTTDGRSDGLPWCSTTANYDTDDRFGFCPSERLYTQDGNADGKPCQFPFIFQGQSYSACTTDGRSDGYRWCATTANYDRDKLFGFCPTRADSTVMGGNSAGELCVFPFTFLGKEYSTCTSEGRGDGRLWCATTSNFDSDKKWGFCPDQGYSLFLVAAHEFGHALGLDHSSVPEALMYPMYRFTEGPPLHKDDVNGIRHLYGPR
T1 sequence (P08254 100-265): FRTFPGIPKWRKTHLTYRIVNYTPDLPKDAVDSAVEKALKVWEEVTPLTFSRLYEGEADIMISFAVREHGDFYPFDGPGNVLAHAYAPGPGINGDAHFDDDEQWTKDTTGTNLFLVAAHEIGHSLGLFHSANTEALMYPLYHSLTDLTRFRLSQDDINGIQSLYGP
T3 sequence (P50282 108-446): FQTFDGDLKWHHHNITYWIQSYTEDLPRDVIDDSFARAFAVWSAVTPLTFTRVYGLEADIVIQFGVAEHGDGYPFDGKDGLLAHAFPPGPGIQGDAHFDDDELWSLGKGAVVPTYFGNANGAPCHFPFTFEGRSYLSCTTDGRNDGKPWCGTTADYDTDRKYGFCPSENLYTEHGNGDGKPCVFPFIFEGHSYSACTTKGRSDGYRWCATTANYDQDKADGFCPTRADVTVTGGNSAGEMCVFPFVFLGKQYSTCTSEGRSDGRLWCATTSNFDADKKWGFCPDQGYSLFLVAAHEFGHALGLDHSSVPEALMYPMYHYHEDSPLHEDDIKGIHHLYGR

Consider `Cc1ccc(Oc2ccc(N(C[C@@H](C(=O)NO)N3CCOCC3)S(C)(=O)=O)cc2)cc1` [Example 27, N-Hydroxy (2S)-3-{N-[4-(4-methylphenoxy)phenyl],N-methanesulfonylamino}-2-(morpholin-4-yl)propionamide], for which the IC50 is 136 nM in test [1]; 3.53 nM in test [2]; 25.8 nM in test [3]; > 10000 nM in test [4]; 1.52 nM and 2.56 nM and 0.93 nM and 4.05 nM and 2.49 nM in test [5]; 3.21 nM and 4.98 nM and 4.19 nM and 10.7 nM and 8.28 nM in test [6].

With `CS(=O)(=O)N(C[C@@H](C(=O)NO)N1CCOCC1)c1ccc(Oc2ccc(C(F)(F)F)cc2)cc1` [Example 3, N-Hydroxy (2S)-2-(morpholin-4-yl)-3-{N-[4-(4-trifluoromethylphenoxy)phenyl],N-methanesulfonylamino}propionamide], the IC50 in test [1] is 63.7 nM and 105 nM; in test [2] it was 30.5 nM and 56.1 nM; in test [5], 4.06 nM and 3.53 nM and 2.37 nM and 2.76 nM and 7.64 nM and 2.89 nM and 2.08 nM and 2.79 nM and 18.4 nM and 7.46 nM.

`CC(C)N(C)[C@@H](CN(c1ccc(Oc2ccc(C(F)(F)F)cc2)cc1)S(C)(=O)=O)C(=O)NO` [Example 97, N-Hydroxy (2S)-2-[N-methyl,N-(2-prolyl)amino]-3-{N-[4-(4-trifluoromethylphenoxy)phenyl],N-methanesulfonylamino}propionamide]: the IC50 in test [1] is 218 nM; in test [2] it was 12.4 nM; in test [3] it was 175 nM; in test [5], 5.48 nM and 12.2 nM; in test [6], 17.4 nM and 29.9 nM.

Consider `Cc1ccc(Oc2ccc(N(C[C@@H](C(=O)NO)N3CCC(O)(c4ccc(Br)cc4)CC3)S(C)(=O)=O)cc2)cc1` [Example 65, N-Hydroxy (2S)-2-[4-(4-bromophenyl)-4-hydroxypiperidin-1-yl]-3-{N-[4-(4-methylphenoxy)phenyl],N-methanesulfonylamino}propionamide], for which the IC50 in test [1] was 492 nM; in test [2], 411 nM; in test [4], > 10000 nM; in test [5], 0.65 nM; in test [6] it was 0.37 nM.

For the molecule `Cc1ccc(Oc2ccc(N(C[C@H](NCCc3c[nH]c4ccccc34)C(=O)NO)S(C)(=O)=O)cc2)cc1` [Example 66], the IC50 in test [1] was 822 nM; in test [2] it was 847 nM; in test [4], > 10000 nM; in test [5], 2.88 nM; in test [6] it was 41.2 nM.

Consider `CS(=O)(=O)N(C[C@@H](O)C(=O)NO)c1ccc(Oc2ccc(Cl)cc2)cc1` [Example 13, N-Hydroxy (2R)-2-hydroxy-3-{N-[4-(4-chlorophenoxy)phenyl],N-methanesulfonylamino}propionamide], for which the IC50 was 9680 nM and 5430 nM in test [4]; 5.57 nM and 7.16 nM in test [5]; 24.1 nM and 44.9 nM in test [6].

On to `CC(=O)N1CCN([C@@H](CN(c2ccc(Oc3ccc(C(F)(F)F)cc3)cc2)S(C)(=O)=O)C(=O)NO)CC1` [Example 84, N-Hydroxy (2S)-2-(4-acetylpiperazin-1-yl)-3-{N-[4-(4-trifluoromethylphenoxy)phenyl],N-methanesulfonylamino}propionamide], for which the figures for the IC50 in test [4], in test [5] and in test [6] were > 10000 nM, 4.81 nM and 8.55 nM, respectively.

As to `CS(=O)(=O)N(C[C@H](O)C(=O)NO)c1ccc(Oc2ccccc2)cc1` [Example 12, N-Hydroxy (2S)-2-hydroxy-3-[N-(4-phenoxy)phenyl,N-methanesulfonylamino]propionamide], the IC50 was > 10000 nM in test [4]; 49.7 nM and 29.2 nM in test [5]; 306 nM and 189 nM in test [6].

As for `Cc1ccc(Oc2ccc(N(C[C@H](NC(C)C)C(=O)NO)S(C)(=O)=O)cc2)cc1` [Example 18, N-Hydroxy (2S)-3-{N-[4-(4-methylphenoxy)phenyl],N-methanesulfonylamino}-2-[(2-propyl)amino]propionamide], the IC50 in test [4] is > 10000 nM and 9560 nM and 4170 nM and 8390 nM and 6950 nM; in test [5] it was 0.61 nM and 0.75 nM and 0.3 nM and 0.41 nM and 0.45 nM; in test [6], 3.63 nM and 2.51 nM and 3.25 nM and 5.11 nM and 5.46 nM and 4.21 nM.

For `Cc1ccc(Oc2ccc(N(C[C@H](Nc3cccc(F)c3)C(=O)NO)S(C)(=O)=O)cc2)cc1` [Example 39, N-Hydroxy (2S)-2-(3-fluorophenyl)amino-3-{N-[4-(4-methylphenoxy)phenyl],N-methanesulfonylamino}propionamide], the IC50 was > 10000 nM in test [4]; 0.46 nM and 1.18 nM and 1.68 nM and 0.25 nM in test [5]; 34.7 nM and 50.6 nM and 73.1 nM and 53 nM in test [6].
